Results reported in ChEMBL document CHEMBL3507680, “University of Dundee, Gates Library screen for HepG2 cell viability”.

Experiment: Human HepG2 cell viability assay in 384 well format
Assay type: toxicity, cell-based
Parameters: dose 125 nL, time 70.5 hour; cytotoxicity at 70.5 h: concentration not given beside the values
Details: HepG2 cells, read-out: Inhibition

Row | SMILES | cytotoxicity at 70.5 h [%]
1 | CN1CCCN(C(=O)c2cccc(S(=O)(=O)NCC3(C)COC3)c2)CC1 | -0.00641
2 | CC(C)N1CCC(C(=O)N2CCc3c(nc(CC4CC4)[nH]c3=O)C2)CC1 | -7.62
3 | O=C(c1c[nH]c(=O)[nH]1)N1CCCC2(CCC(=O)N(C3CCCC3)C2)C1 (centres undefined) | 1.3
4 | O=C(NCCc1noc(C2CCCO2)n1)c1cn2ccsc2n1 (centres undefined) | -4.56
5 | CO[C@@H](C(=O)NC1CCOCC1)c1ccccc1 | 9.39
6 | CCc1ccc(CN2CCC(=O)N(CC3CC3)C(C(C)C)C2)nc1 (centres undefined) | -11.4
7 | CC(C)=CCCC(C)CN1CCC(n2cc(C(=O)NCCO)nn2)CC1 (centres undefined) | -4.56
8 | O=c1cc(N2CCCCC2)cnn1C[C@H](O)CO | -3.44
9 | COCC[C@]1(O)CCN(Cc2nc(C)c(C)s2)C[C@H]1C | -7.5
10 | CCOc1ccc2[nH]c(=O)c(CN3CCCC(CO)(CO)C3)cc2c1 | -4.6
11 | Cn1cc(CN2CCCC(CCc3ccc(F)cc3)C2)cn1 (centres undefined) | 8.18
12 | CSCCC(=O)N1CCCC(c2ncc[nH]2)C1 (centres undefined) | -21.7
13 | CSCc1noc(CNC(=O)c2cc(C)c(C)[nH]c2=O)n1 | -5.2
14 | CCCn1cnnc1CN(C)C(=O)C1CCC(=O)N(C2CCCC2)C1 (centres undefined) | -3.21
15 | CCN(C)C(=O)Cn1c(-c2ccco2)nn(-c2ccccc2OC)c1=O | 0.98
16 | c1cnc2c(-c3nccn3C[C@@H]3CCCN4CCCC[C@H]34)cccc2c1 | 2.23
17 | c1ccc(C2CCCN2Cc2nc(-c3cnccn3)no2)nc1 (centres undefined) | -6.26
18 | CC(C)Oc1cccc(F)c1C(C(=O)O)N(C)Cc1ccon1 (centres undefined) | 0.036
19 | CCCN1CC(NC(=O)Nc2nc(C)n(C(C)C)n2)CC1=O (centres undefined) | -3.82
20 | Cc1cc(CNC(=O)c2ccc(C(C)N3CCCCC3)o2)[nH]n1 (centres undefined) | -5.86
21 | CCN1CC(C(=O)N2CCN(c3cnn(C)c(=O)c3)CC2)CCC1=O (centres undefined) | -9.64
22 | CN(C)CCn1ccnc1C1CCN(C(=O)CCc2cccnc2)CC1 | -4.1

Row | SMILES | cytotoxicity at 70.5 h [%]
23 | CCN1Cc2nc(OC)c(CNC(=O)CCC3CCCC3)cc2C1=O | -11.1
24 | Cn1cc(CN2CCCC(O)C2)c(-c2ccccc2F)n1 (centres undefined) | -6.51
25 | NC(=O)c1ccc(C2CCCN2C(=O)Cn2nc3ccccc3n2)s1 (centres undefined) | 8.36
26 | Cc1cc(C)n(CCC2CC(=O)Nc3cc4[nH]ncc4cc32)n1 (centres undefined) | -6.11
27 | O=C1N(CCCc2ccccc2)CCCC1(O)CN1CCC(CO)CC1 (centres undefined) | -9.35
28 | Cc1nnc(CCNC(=O)Nc2ccc(S(C)(=O)=O)cc2)[nH]1 | 35.6
29 | Cc1c(Cl)cccc1NC(=O)N1CCC2(CC1)NC(=O)CC2C(=O)O (centres undefined) | 1.01
30 | O=C(CN1CCc2ccccc2C1)NCc1cc2n(n1)CCCNC2 | -6.65
31 | CCC(CO)N(Cc1ccco1)C(=O)c1ccccc1NC (centres undefined) | 0.632
32 | CC(C)Oc1cccc2c1c(NC(=O)CN(C)C)nn2CC(F)(F)F | -8.54
33 | CCn1cnnc1CN(C)C(=O)c1cc(COc2cccc(F)c2)[nH]n1 | 10.8
34 | O=C(NC1CC1)C1CN(Cc2ccc3c(c2)OCCO3)CCN1 (centres undefined) | -11.1
35 | O=C(O)[C@@H]1CN(C(=O)CN2CCCCCC2)C[C@H]1c1ccccc1 | 1.47
36 | Cc1ccc(-c2ccnc(NC(c3ncccc3C)C3CC3)n2)c(C)n1 (centres undefined) | -3.87
37 | Cc1cnc(N)nc1N1CCN(CCCO)CC1 | -10.3
38 | Cc1ccccc1-c1ncc(CNCc2csc(C(C)C)n2)s1 | -5.31
39 | Cc1ccc(CN(Cc2ccccn2)C(=O)[C@H]2CC[C@@H](N)C2)s1 | -10.2
40 | CC(C)N(C)S(=O)(=O)c1ccc2c(c1)CCN(C(=O)c1cnccn1)C2 | -5.23
41 | O=C(c1cc(=O)n(-c2ccccc2)[nH]1)N1CCOCC(O)C1 (centres undefined) | 22.9
42 | c1ccc(-c2nc3c(c(NCCn4ccnn4)n2)CCNCC3)nc1 | -6.02
43 | COc1ccc(OCCN2CCOCS2(=O)=O)cc1 | -6.02
44 | O=C1NCC(c2ccc(Cl)cc2)Cc2[nH]c(CCN3CCOCC3)nc21 (centres undefined) | -12.7
